# Values joined by “and” are separate entries in the source; they are usually repeats but may differ in a detail not shown here. Equal values may be shown once. “Also recorded” adds a separate entry of the source. Read-outs that look alike come from different tables or passages of the source.
# Columns and labels:
# Assay in all cases: biochemical
# aromatase [1] = target: T1, aromatase (Homo sapiens, UniProt P11511); format: biochemical, human (placenta microsomal fraction)
# T1 construct: microsomal fraction isolated from human placenta; from tissue; host or cells: human placenta, microsomal fraction
# T1 sequence (P11511 1-503): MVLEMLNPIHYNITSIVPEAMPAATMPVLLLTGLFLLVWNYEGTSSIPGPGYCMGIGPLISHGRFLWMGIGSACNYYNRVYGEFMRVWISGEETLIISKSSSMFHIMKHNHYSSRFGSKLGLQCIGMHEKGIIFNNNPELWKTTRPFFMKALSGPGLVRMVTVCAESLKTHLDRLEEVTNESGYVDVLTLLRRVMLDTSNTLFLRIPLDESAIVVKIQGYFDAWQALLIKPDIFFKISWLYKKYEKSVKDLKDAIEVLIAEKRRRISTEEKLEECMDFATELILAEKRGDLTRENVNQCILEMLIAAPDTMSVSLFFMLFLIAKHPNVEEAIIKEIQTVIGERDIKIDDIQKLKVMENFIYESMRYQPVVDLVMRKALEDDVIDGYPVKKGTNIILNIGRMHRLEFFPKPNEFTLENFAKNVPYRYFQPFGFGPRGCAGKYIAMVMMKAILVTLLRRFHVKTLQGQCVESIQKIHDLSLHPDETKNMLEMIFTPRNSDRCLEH
# Procedure: Assay buffer contains 100 mM KCl, 10 mM KH2 PO4, 10 mM dithiothreitol and 1 mM EDTA at pH 8.0. […] These preparations are mixed using a vortex mixer and incubated for 30 minutes at 37° C. with a 95% O2 :5% CO2 gas phase in a Dubinoff shaking incubator.
# The enzymatic reaction is terminated by the addition of 10 ml of CHCl3. After vortexing for 20 sec., aqueous/organic emulsions are dispersed and phase separation achieved following centrifugation at 600×g for 10 min. Duplicate 500 ul samples of the upper aqueous phase of each incubation sample are added to 10×75 mm culture tubes. To these tubes, 500 ul of cold 0.25% dextran-coated charcoal suspension is added, vortexed, incubated for 15 min. at 4° C., then centrifuged at 2600×g in a refrigerated centrifuge (4° C.). The supernatant fraction is decanted into a 20 ml scintillation vial and 15 ml of aqueous scintillation cocktail is added. The radioactivity of ^3 H2 O resulting from liberated 1 and 2 tritium atoms during the enzymatic reaction is determined by counting for 10 min. in a liquid scintillation counter. This assay procedure is adapted from the procedures of Reed et al, J. Biol. Chem., 251, 1625 (1976), and Thompson et al, J. Biol. Chem., 249, 5364 and 5374 (1974).
# aromatase [2] = target: T1, aromatase; format: human (placenta microsomal fraction); details: for inhibition at 0.25 µM: inhibitor 0.25 uM; for inhibition at 0.25 µM / inhibition at 2.5 µM / inhibition at 0.1 µM / inhibition at 1 µM: read-out: Percent Inhibition; for inhibition at 2.5 µM: inhibitor 2.5 uM; for inhibition at 0.1 µM: inhibitor 0.1 uM; for inhibition at 1 µM: inhibitor 1.0 uM
# Procedure: In this assay, the inhibitor is preincubated with the enzyme prior to assaying for enzyme activity in the presence of high substrate levels.
# (§1) In the time-dependent assay, an amount of the enzyme inhibitor in 100 ul of the assay buffer described above which will provide assay concentrations which are approximately one and ten times the IC50 values are added to 35 ml centrifuge tubes containing 600 ul of the NADPH generating system described above. […] These preparations are mixed using a vortex mixer and incubated for 0, 10, 20 or 40 minutes at 25° C. […] Following vortexing, the enzyme incubation is continued for 10 minutes before being terminated by the addition of chloroform. The amount of radioactivity in the aqueous fraction is determined by scintillation procedures. […] Therefore, the percent enzyme inhibition is expressed as a percentage of the 100 percent enzyme activity value.
# aromatase [3] = target: T1, aromatase; format: human (placenta microsomal fraction); details: for Ki: time-dependent assay, Table 2, read-out: Apparent Ki
# Procedure: as §1
# Compounds which show time-dependent inhibition are then assayed to establish the inhibition constant, Ki, which is the apparent dissociation constant for the enzyme-inhibitor complex. This determination requires measurements at initial velocities of enzyme reaction. […] The enzyme half-life (t1/2) at these different inhibitor concentrations ([In]) is used to determine the Ki by the linear regression equation of the t1/2 vs. 1/[In]. The Ki is equivalent to the inhibitor concentration when t1/2 is equal to zero.
smiles,measurement,setting,value
"C[C@]12C=CC(=O)C=C1CC[C@@H]1[C@@H]2CC[C@]2(C)OC(=O)CC[C@@H]12 [1-dehydrotestololactone, 1,2,3,4,4a,4b,7,9,10,10a-Decahydra-2-hydroxy-2,4b-dimethyl-7oxo-l-phenanthrene-propionic acid O-lactone]",IC50,aromatase [1],2.5 µM
same,inhibition at 0.25 µM,aromatase [2]; preincubation 0 minutes,0%
same,inhibition at 0.25 µM,aromatase [2]; preincubation 20 minutes,3.6%
same,inhibition at 0.25 µM,aromatase [2]; preincubation 40 minutes,36.1%
same,inhibition at 2.5 µM,aromatase [2]; preincubation 0 minutes,24.7%
same,inhibition at 2.5 µM,aromatase [2]; preincubation 20 minutes,82.7%
same,inhibition at 2.5 µM,aromatase [2]; preincubation 40 minutes,96.9%
same,Ki,aromatase [3],7.9 µM
"C=C=C[C@]12CCC(=O)C=C1CC[C@@H]1[C@@H]2CC[C@]2(C)C(=O)CC[C@@H]12 [10-(1,2-propadienyl)estr-4-ene-3,17-dione]",Enzyme affinity compared with other known inhibitors,aromatase [1],greater enzyme affinity than other known inhibitors
same,Activity compared with known therapeutic agents / known aromatase inhibitors,aromatase [2],superior activity to known therapeutic agents; also recorded: superior to known aromatase inhibitors
same,Time-dependent inhibition of aromatase,aromatase [2],significant time-dependent inhibition of aromatase
same,Percent Inhibition,aromatase [2]; 1 µM,50.2 and 69.2 and 84.0
same,Affinity for the enzyme site relative to natural substrate testosterone (times greater),aromatase [3],three times greater
same,Binding to the enzyme,aromatase [3],irreversibly bound to the enzyme
same,Factor by which enzyme affinity exceeds that of 1-dehydrotestololactone,aromatase [3],58.1
same,Factor by which enzyme affinity exceeds that of aminoglutethimide,aromatase [3],"1,491.2"
same,"Factor by which enzyme affinity exceeds that of androsta-1,4,6-triene-3,17-dione",aromatase [3],8.1
"C[C@]12C=CC(=O)C=C1C=C[C@@H]1[C@@H]2CC[C@]2(C)C(=O)CC[C@@H]12 [Androsta-1,4,6-triene-3,17-dione]",IC50,aromatase [1],0.1 µM
same,inhibition at 0.1 µM,aromatase [2]; preincubation 0 minutes,20.5%
same,inhibition at 0.1 µM,aromatase [2]; preincubation 20 minutes,45.5%
same,inhibition at 0.1 µM,aromatase [2]; preincubation 40 minutes,54.8%
same,inhibition at 1 µM,aromatase [2]; preincubation 0 minutes,88.8%
same,inhibition at 1 µM,aromatase [2]; preincubation 20 minutes,92.8%
same,inhibition at 1 µM,aromatase [2]; preincubation 40 minutes,95.2%
same,Ki,aromatase [3],0.11 µM

# Reference: patent US4289762A, “10-(1,2-Propadienyl) steroids as irreversible aromatase inhibitors” (Merrell Dow Pharmaceuticals Inc., priority 1980, dated 1981)
